From patent US20120283293A1, “Methods of neuroprotection involving Prostaglandin E2 EP4 (PGE2 EP4) receptor activation” (The Board of Trustees of the Leland Stanford Junior …, priority 2011, published 2012)

Tests used:
[1] = tested on: plasma cytokine and chemokine levels; assay: plasma multi-analyte analysis in LPS-stimulated mice; assay type: in vivo, mouse; details: LPS 5 mg/kg i.p., AE1-329 300 μg/kg s.c.
Method: The murine in vivo studies were conducted in accordance with the National Institutes of Health guidelines for the use of experimental animals and protocols were approved by the Institutional Animal Care and Use Committee. C57B6 EP4 floxed mice (Schneider et al., 2004) were kindly provided by Drs. Richard and Matthew Breyer (Vanderbilt University School of Medicine, Nashville, Tenn.), and C57B6 Cd11bCre mice (Boillee et al., 2006) were kindly provided by Dr. G. Kollias (Alexander Fleming Biomedical Sciences Research Center, Vari, Greece) and Dr. Donald Cleveland (UCSD, San Diego, Calif.). All mice were housed in an environment controlled for lighting (12 hour light/dark cycle), temperature, and humidity, with food and water available ad libitum. Cd11bCre:EP4f/f and Cd11bCre:EP4+/+ mice were generated by serial crosses of C57B6 Cd11bCre and EP4f/f and EP4+/+ lines. Male Cd11bCre: EP4f/f and Cd11bCre: EP4+/+ mice were treated with either saline or LPS (5 mg/kg intraperitoneally: n=5-8 per group, 13 months of age). 24 hours after injection, mice were euthanized and brain tissue was harvested and frozen at −80° C. For pharmacological experiments, C57B6 male mice (Jackson Laboratories, Bar Harbor, Me.; n=7 or 8 per group) received an injection of saline or LPS (5 mg/kg, i.p.+/−vehicle or AE1-329 ([…]) (Qin et al., 2007; Nagamatsu et al., 2006). Mice were euthanized 6 hours later, and brain tissue was harvested and frozen at −80° C. For collection of plasma, C57B6 male mice (n=5 per group) received an injection of saline or LPS (5 mg/kg, i.p.)+/−AE1-329 ([…].) or vehicle. […] Plasma was collected after centrifugation at 1000×g for 10 min at 4° C. and frozen at −80° C.
Plasma was analyzed using the Rodent MAP™ Antigens, Version 2.0 multi-analyte profile (Rules Based Medicine, Austin, Tex.) that screens a total of 59 blood secreted proteins using multiplex fluorescent immunoassay.
Data are presented as mean±standard error of the mean and analyzed using analysis of variance or Student's t test. Prism software (GraphPad Software, Inc. San Diego, Calif.) was used for statistical analyses. Data for Griess assays and quantitative Western analyses were analyzed using one-way or two-way ANOVA, followed by Newman-Keuls multiple comparison or Bonferroni posttest analysis, respectively. For plasma multi-analyte analysis, the concentrations of the 15 plasma proteins that reached statistical significance between LPS+vehicle versus LPS+AE1-329 cohorts were transformed to relative concentrations (Median Z-score). Cluster analysis (Gene Cluster3.0, University of Tokyo, Tokyo and Java TreeView 1.0.13, Alok Saldanda, Calif.) produced a separation of samples according to treatment group and protein levels in plasma. […]

[2] = tested on: EP4 receptor; details: Suzawa et al., 2000; Shibuya et al., 2002; cited from earlier work
[3] = tested on: PKA activity in BV-2 cells; assay: cAMP dependent protein kinase A (PKA) activity assay in BV-2 cells; assay type: cell-based, murine; details: AE1-329 100 nM alone or with LPS 100 ng/ml
Method: PKA activity was determined using the PKA kinase activity assay kit (Assay designs, Ann Arbor, Mich.). Cells were harvested 3 minutes after stimulation, and ELISA was carried out according to the manufacturer's instructions. Kinase activity was calculated as (sample absorbance—blank absorbance)/μg protein and normalized to the average value of vehicle.
Downstream signaling events for EP4, a […] receptor, were investigated in LPS treated BV-2 cells (see FIG. 3). […] The increase in PKA activity from EP4 receptor signaling was blocked with the PKA inhibitor H89 at doses of 5 μM and 10 μM (FIG. 3B).

With `COCc1ccccc1CC[C@H](O)/C=C/[C@H]1[C@H](O)CC(=O)[C@@H]1SCCCSCC(=O)O` [AE1-329] as the compound, how does the “plasma levels of IL-10” value ([1]; 3 hours) read?
Its value is “significantly increased plasma levels”.

What about the “plasma levels of TNF-α, IL-1α, eotaxin, MDC, MIP-1α, MIP-1β, MIP-1γ, MIP-2, MCP-1, MCP-3 and MCP-5” value ([1]; 3 hours) of the same compound?
Its value is “significantly decreased levels”.

What about the plasma myeloperoxidase ([1]; 3 hours) of the same compound?
The plasma myeloperoxidase was “reduced secreted levels”.

What about the “plasma levels of IL-6 and LIF” value ([1]; printed 'at 6 h') of the same compound?
Its value is “trend towards decreased levels”.

And the “selectivity for the EP4 receptor” value [2]?
The value was “selectivity for the EP4 receptor has been previously established”.

And the PKA activity [3]?
Its PKA activity is “significantly increased”.
